In US11110114B2, “Dinucleotides” (OXFORD UNIVERSITY INNOVATION LIMITED, priority 2017, dated 2021):
Read-outs that look alike come from different tables or passages of the source. In the oligonucleotide strings, read from the 5' end, every base follows the letter of its sugar. An asterisk marks phosphorothioate; unmarked linkages are phosphodiester. Other units and linkages are bracketed, terminal groups are in braces. A string of capitals states the bases alone. [tz] = triazole internucleoside linkage; l = locked nucleic acid (LNA); [5mC] = 5-methylcytosine; d = 2'-deoxy (DNA)

Experiments:
Format in all cases: binding
[1] = test system: RNA Target 3′-rGAG UGM UAG ACG A; assay: Mismatch discrimination by UV melting (Table 3)
Protocol: (§1) UV DNA melting curves were recorded in a Cary 4000 Scan UV-Visible Spectrophotometer using 3 μM of each oligonucleotide in a 10 mM phosphate buffer containing 200 mM NaCl at pH 7.0. Samples were annealed by heating to 85° C. (10° C./min) and then slowly cooling to 20° C. (1° C./min). As these six successive cycles (heating and cooling) were performed at a gradient of 1° C./min, the change in UV absorbance at 260 nm was recorded. The melting temperature was calculated from the 1st derivative of the melting curve using in built software.

[2] = test system: DNA target 5′-dGCT GCA GGC GTC G (SEQ ID NO: 35); conditions: for Tm DNA target: pH 7
[3] = test system: RNA target 5′-rGCU GCA GGC GUC G (SEQ ID NO: 36); conditions: for Tm RNA target: pH 7
[4] = test system: DNA target: 5′-dGCT GGA GAG GTC G (SEQ ID NO: 39)
[5] = test system: RNA Target 3′-rGCUGCGMACGUCG; assay: Mismatch discrimination by UV melting, single triazole linkage MeC-T step (Table 6)
[6] = test system: DNA target: 5′-dGCT GCA AGC GTC G (SEQ ID NO: 48); assay: UV melting, single triazole linkage, DNA target (Table 8)
[7] = test system: RNA target: 5′-rGCU GCA AGC GUC G (SEQ ID NO: 49); assay: UV melting, single triazole linkage, RNA target (Table 8)
[8] = test system: DNA target; 5′-dGCT AGA GAA GTC G (SEQ ID NO: 52); assay: UV melting, two triazole linkages, DNA target (Table 9); conditions: two MeC-T steps
Protocol: as §1
(§2) Next, oligonucleotides incorporating two triazole inter-nucleotide linkage steps were prepared by templated CuAAC click ligation reactions in the presence of a complementary splint. The ligated oligonucleotides were purified by denaturating 20% polyacrylamide gel electrophoresis and were evaluated for their binding affinity for complementary DNA/RNA strands (Table 9). […] When compared to unmodified ON7, a drop of only 0.8° C./modification was observed (ON8, RNA target). […] Since the improvement in binding affinity is specific for DNA:RNA hybrids, triazole-linked LNA could find use in selective probes for RNA targeting.

[9] = test system: RNA target; 5′-rGCU AGA GAA GUC G (SEQ ID NO: 18); assay: UV melting, two triazole linkages, RNA target (Table 9); conditions: for TM RNA TARGET: two MeC-T steps
Protocol: as §1, §2

[10] = fully matched RNA target (M = A)
[11] = mismatch M = C, relative to the fully matched duplex (M = A)
[12] = mismatch M = G, relative to the fully matched duplex (M = A)
[13] = mismatch M = U, relative to the fully matched duplex (M = A)
[14] = 10 mM phosphate, 200 mM NaCl, pH 7.0, 3.0 μM each strand
[15] = relative to the unmodified duplex (ON1)

Q: “5′-CTC ACT ATC TG^MeCT (DNA dCdTdCdAdCdTdAdTdCdTdGd[5mC]dT) [ON100, reference compound]” was tested. Which TM M = A [1, 10] did it give?
A: 54.8 °C

Q: And the “ΔTM U” value ([1]; mismatch RNA target M = U, change in Tm relative to the fully matched duplex (M = A))?
A: -11.3

Q: With “5′-d CGACG^MeCp^MeCTGCAGC (DNA dCdGdAdCdGd[5mC]d[5mC]dTdGdCdAdGdC) [ON33, reference compound]” as the substance, how does the Tm DNA target [2] read?
A: 68.7 °C

Q: And the Tm RNA target [3]?
A: 69.1 °C

Q: “5′-d CGACG^MeCp^MeC^LTGCAGC (DNA dCdGdAdCdGd[5mC]l[5mC]dTdGdCdAdGdC) [ON34, reference compound]” was tested. Which “ΔTm DNA target” value [2] did it give?
A: +3.3

Q: And the Tm DNA target [2]?
A: 72 °C

Q: And the “ΔTm RNA target” value [3]?
A: +5.6

Q: And the Tm RNA target [3]?
A: 74.7 °C

Q: For “5′-d CGACG^MeCt^MeCTGCAGC (DNA dCdGdAdCdGd[5mC][tz]d[5mC]dTdGdCdAdGdC) [ON12]”, which “ΔTm DNA target” value [2] is on record?
A: -6.4

Q: What about the Tm DNA target [2] of the same substance?
A: 62 °C

Q: And the “ΔTm RNA target” value [3]?
A: -5.8

Q: And the Tm RNA target [3]?
A: 63.4 °C

Q: What does the source list for “5′-dCGACG^MeCt^MeC^LTGCAGC (DNA dCdGdAdCdGd[5mC][tz]l[5mC]dTdGdCdAdGdC) [ON11]”?
A: ΔTm DNA target [2]: -5.1; Tm DNA target [2]: 63.5 °C; ΔTm RNA target [3]: -0.5; Tm RNA target [3]: 68.6 °C

Q: With “5′-dCGA^MeCp^MeCTCT^MeCp^MeCAGC (DNA dCdGdAd[5mC]d[5mC]dTdCdTd[5mC]d[5mC]dAdGdC) [ON35, reference compound]” as the substance, how does the Tm DNA target [4] read?
A: 66.6 °C

Q: “5′-dCGA^MeCp^MeC^LTCT^MeCp^MeC^LAGC [ON36, reference compound]” was tested. Which Tm DNA target [4] did it give?
A: 72.2 °C

Q: And the “ΔTm/mod DNA target” value [4]?
A: +2.8

Q: For 5′-dCGA^MeCt^MeCTCT^MeCt^MeCAGC [ON14], which Tm DNA target [4] is on record?
A: 51.9 °C

Q: And the “ΔTm/mod DNA target” value [4]?
A: -7.3

Q: What does the source list for “5′-dCGA^MeCt^MeC^LTCT^MeCt^MeC^LAGC [ON13]”?
A: Tm DNA target [4]: 56.4 °C; ΔTm/mod DNA target [4]: -5.1

Q: Which results are given for “CGACG^MeCTTGCAGC (dCdGdAdCdGd[5mC]dTdTdGdCdAdGdC) [ON1, unmodified 13-mer, reference compound]”?
A: TM M = A [5, 10]: 62.8 °C; ΔTM C [5, 11]: -16.3; ΔTM G [5, 12]: -3.9; ΔTM U [5, 13]: -13.7; TM DNA TARGET [6, 14]: 64.2 °C; TM RNA TARGET [7, 14]: 62.8 °C

Q: For “CGACG^MeCT^LTGCAGC (DNA dCdGdAdCdGd[5mC]lTdTdGdCdAdGdC) [ON4, reference compound]”, which TM M = A [5] is on record?
A: 68.9 °C

Q: And the “ΔTM C” value [5]?
A: -15.2

Q: And the “ΔTM G” value [5]?
A: -4.8

Q: And the “ΔTM U” value [5]?
A: -13.7

Q: What about the ΔTM DNA TARGET [6] of the same substance?
A: 3.3 °C

Q: What about the TM DNA TARGET ([6]; pH 7) of the same substance?
A: 67.5 °C

Q: What about the ΔTM RNA TARGET [7] of the same substance?
A: 6.1 °C

Q: What about the TM RNA TARGET ([7]; pH 7) of the same substance?
A: 68.9 °C

Q: “CGACG^MeC^LtTTGCAGC (dCdGdAdCdGl[5mC][tz]dTdTdGdCdAdGdC) [ON5, LNA on the 5′-side of the triazole]” was tested. Which “TM DNA TARGET” value [6, 14] did it give?
A: 52.7 °C

Q: What about the “ΔTM DNA TARGET” value [6, 15] of the same substance?
A: -11.5 °C

Q: And the “TM RNA TARGET” value [7, 14]?
A: 55.5 °C

Q: And the “additional stabilising effect of LNA on the 5′-side of the triazole” value ([7]; DNA:RNA hybrids or DNA duplexes (Table 8))?
A: no significant additional stabilising effect

Q: And the “ΔTM RNA TARGET” value [7, 15]?
A: -7.2 °C

Q: Which “ΔTM DNA TARGET” value [6] does the source give for “CGACG^MeC^LtT^LTGCAGC (DNA dCdGdAdCdGl[5mC][tz]lTdTdGdCdAdGdC) [ON6]” here?
A: -5.8

Q: And the TM DNA TARGET ([6]; pH 7)?
A: 58.4 °C

Q: And the “additional stabilising effect of LNA on the 5′-side of the triazole” value [7]?
A: no significant additional stabilising effect

Q: What about the “ΔTM RNA TARGET” value [7] of the same substance?
A: +0.1

Q: What about the TM RNA TARGET ([7]; pH 7) of the same substance?
A: 62.9 °C

Q: How did the TM M = A [5, 10] turn out when CGACG^MeCtTTGCAGC [ON3] was run?
A: 56.6 °C

Q: What about the “ΔTM C” value [5, 11] of the same substance?
A: -16.1

Q: And the “ΔTM G” value [5, 12]?
A: -2.2

Q: What about the “ΔTM U” value [5, 13] of the same substance?
A: -12.9

Q: And the “TM DNA TARGET” value [6, 14]?
A: 55.3 °C

Q: And the “ΔTM DNA TARGET” value [6, 15]?
A: -8.9 °C

Q: And the “TM RNA TARGET” value [7, 14]?
A: 56.6 °C

Q: What about the “ΔTM RNA TARGET” value [7, 15] of the same substance?
A: -6.2 °C

Q: How did the TM M = A [5] turn out when “CGACG^MeCtT^LTGCAGC (DNA dCdGdAdCdGd[5mC][tz]lTdTdGdCdAdGdC) [ON2]” was run?
A: 62 °C

Q: And the “ΔTM C” value [5]?
A: -15.6

Q: And the “ΔTM G” value [5]?
A: -3.3

Q: What about the “ΔTM U” value [5] of the same substance?
A: -13.4

Q: And the “increase in thermal stability compared to the duplex containing only the triazole linkage” value [6]?
A: 2.9

Q: What about the “ΔTM DNA TARGET” value [6] of the same substance?
A: −6.0

Q: What about the TM DNA TARGET ([6]; pH 7) of the same substance?
A: 58.2 °C

Q: And the “increase in Tm relative to the duplex with only the triazole linkage” value [7]?
A: 5.4

Q: What about the “ΔTM RNA TARGET” value [7] of the same substance?
A: −0.8

Q: What about the TM RNA TARGET ([7]; pH 7) of the same substance?
A: 62 °C

Q: Which “TM DNA TARGET” value [8] does the source give for “CGA^MeCTTCT^MeCTAGC (dCdGdAd[5mC]dTdTdCdTd[5mC]dTdAdGdC) [ON7, unmodified 13-mer, reference compound]” here?
A: 57.1 °C

Q: And the “TM RNA TARGET” value [9]?
A: 58.8 °C

Q: How did the “TM DNA TARGET” value [8] turn out when “CGA^MeCT^LTCT^MeCT^LAGC (dCdGdAd[5mC]lTdTdCdTd[5mC]lTdAdGdC) [ON10, two LNA, no triazole, reference compound]” was run?
A: 62.2 °C

Q: And the “TM RNA TARGET” value [9]?
A: 70.0 °C

Q: CGA^MeCtTTCT^MeCtTAGC [ON9] was tested. Which “TM DNA TARGET” value [8] did it give?
A: 42.3 °C

Q: What about the “TM RNA TARGET” value [9] of the same substance?
A: 47.1 °C

Q: CGA^MeCtT^LTCT^MeCtT^LAGC [ON8] was tested. Which “TM DNA TARGET” value [8] did it give?
A: 48.0 °C

Q: What about the “drop in Tm compared to unmodified ON7” value ([9]; RNA target) of the same substance?
A: 0.8 °C/modification

Q: What about the “increase in Tm relative to oligonucleotides with two triazole linkages without 3′-LNA” value ([9]; RNA target, compare ON8 and ON9) of the same substance?
A: 5.0 °C/modification

Q: What about the “TM RNA TARGET” value [9] of the same substance?
A: 57.1 °C
